# Measured values: a melting point compilation (Tetko et al.; mined from patent text by program, amines drawn as free bases though some values may be those of a salt)
row,melting point [°C],Compound
1,135 to 137,Cc1nn(-c2cc([N+](=O)[O-])c(Cl)cc2F)c(Cl)c1Br
2,145 to 147,Cc1cc(Nc2cncc(Nc3ccc(Cl)c(OCCN(C)C)c3)n2)n[nH]1
3,139 to 143,O=C1C(CCO)Oc2cc([N+](=O)[O-])ccc2N1Cc1ccccc1[N+](=O)[O-] (stereo not given)
4,170 to 172,N=C(Nc1ccc(Cl)cc1)Nc1ncccc1OCc1ccccc1
5,189 to 193,Cc1[nH]c(=O)n(-c2cc(C(=O)OC(C)C)c(Cl)cc2F)c(=O)c1C#N
6,138 to 140,COC(=O)CCCC(C)(C)c1ccc(C(=O)c2ccccc2C(=O)O)cc1
7,113 to 115,COc1cc(Cl)c2c(-c3ccccc3F)noc2c1
8,214 to 217,N#Cc1cc(=O)n2nc(S(=O)(=O)Cc3ccccc3)sc2n1
9,181 to 186,CN(C)N1CSC(=CCc2cc(C(C)(C)C)c(O)c(C(C)(C)C)c2)C1=O
10,164 to 165,CCn1c(=O)cc(C)c2ccc(OCCCN3CCC(NC(=O)c4ccccc4)CC3)cc21
11,116 to 118,NC(=O)Cc1ccccc1OCCn1ccnc1
12,207 to 209,O=C1c2cccc3c(Cl)ccc(c23)C(=O)N1CCN1CCC(c2noc3cc(F)ccc23)CC1
13,173 to 177,COC(=O)c1cc2cc(C(=O)CN3CCN(c4ccncc4)CC3)ccc2o1
14,124 to 126,CC(=O)NC1(c2ccc(CN3CCN(c4ccc(F)cc4)CC3)cc2)CC1
15,110,CCCCCCCCCCCCCCCC(=O)N[C@@H](CSC[C@H](O)CO)C(=O)O
16,202 to 204,CC(c1cc(Cl)ccc1N1CCCC1)C(C(N)=O)c1ccc(C(=O)O)cc1 (stereo not given)
17,83 to 87,COC(=O)C1=C(C)NC(C)=C(C(=O)OCCN2CCN(C(c3ccc(C)cc3)c3ccc(C)cc3)CC2)C1c1cccc([N+](=O)[O-])c1 (stereo not given)
18,35,CCCCc1ccc(-c2ccc(CCc3ccc(F)cc3)cc2)c(F)c1
19,150 to 152,Cc1sc2cc(CC(=O)O)ccc2c1Br
20,189 to 190,CCOC(=O)c1cc(NCc2ccccc2)c(Oc2ccc(OC)cc2)c(S(N)(=O)=O)c1
21,133 to 135,COC(=O)c1ccc(OCCCOc2cc3c(cc2O)CCO3)cc1
22,35 to 36,CCOc1ccnc(F)c1
23,90 to 92,CC(C)(CCl)C(=O)N(O)Cc1ccccc1
24,192 to 193,Cc1c(OCc2ccccc2)c(=O)ccn1CCO

row,melting point [°C],Compound
1,222,COC1(N)C=CC(C(=O)c2cnc(Nc3ccccc3)s2)=CC1 (stereo not given)
2,124 to 126,CC(=O)c1ccc(CCNS(=O)(=O)c2ccc(C)cc2)cc1
3,87 to 90,CN(C)c1nnc(-c2nnc(SCCC(F)=C(F)F)o2)o1
4,85 to 87,CC1=C(C(=O)Nc2ccccc2)OCCO1
5,99 to 102,CN1C(=N)C(=O)c2ccccc21
6,75 to 76,Cc1ccc2c(c1)SC(c1ccc(OCCCCBr)cc1)C(=O)N2C (stereo not given)
7,> 280,CNc1c(F)cc2c(=O)c(C(=O)O)cn(-c3ccc(F)c(O)c3)c2c1C
8,124 to 127,CN1CCSC1=NC(=Nc1ccc(Cl)cc1)N1CCCC1
9,171 to 178,CCNc1cc(-c2nc(=O)c3ccccc3s2)ccc1C(=O)OC
10,72 to 73,CCCCc1ccc(NC=O)c([N+](=O)[O-])c1
11,71 to 72,CCCc1c(OCCCOc2ccc(C(=O)OCCCN(C)C)cc2Br)ccc(C(C)=O)c1O
12,155 to 156,NC(=O)CCNC(=O)c1cccc(-c2cccc3oc(Cc4cccc(C(F)(F)F)c4)cc23)c1
13,146 to 148,COc1cc(OC)cc(N2CCN(C(=S)Nc3cc(C(C)O)c(C)cc3OC)CC2)c1 (stereo not given)
14,204 to 206,O=C(c1ccc[nH]1)c1cccn1N1C(=O)c2ccccc2C1=O
15,94,Cc1cnc(I)nc1Oc1cc(C(F)(F)F)nn1C
16,150 to 152,COc1cc(OC)nc(NC(=O)NS(=O)(=O)Nn2cccc2C(=O)N(C)C)n1
17,57 to 61,O=C(NC/C=C\COc1cc(CN2CCCC2)ccn1)c1cn[nH]c1
18,139 to 141,CCOc1c(C(C)=O)cnc2c1cnn2Cc1ccco1
19,90 to 92,COC(=O)C(C)(C)CCCOc1cc(C)c(NS(=O)(=O)c2ccc(OC)cc2)cc1C
20,30,CCCCCCOc1ccc(C2OCC(C(=O)O)CO2)cc1 (stereo not given)
21,86 to 88,CCCc1cc(Cl)c(OC(=S)N(C)C)c(C(C)=O)c1OC(C)=O
22,132 to 133,O=C1NC(=O)C(Nc2cccc(-c3ccc(OCc4ccc5ccccc5n4)cc3)c2)S1 (stereo not given)
23,> 300,O=c1[nH]c2ccccc2c2ccc3nc(Nc4c(Cl)cccc4Cl)[nH]c3c12
24,133 to 138,O=C(O)COc1cccc(CCn2ncc(-c3ccccc3)c2-c2ccccc2)c1

row,melting point [°C],Compound
1,100 to 102,CC(C)(C)c1ccc(Cn2ccc3ccc(-c4ccc(OC(F)(F)F)cc4)cc32)cc1
2,159 to 161,CCc1ccc(N(Cc2ccc(N3CCOCC3)cc2)C(=O)Nc2c(C(C)C)cccc2C(C)C)cc1
3,77 to 79,CCCc1ccc2oc(CCc3ccc(OC)cc3)c(C)c2c1O
4,69 to 73,COc1cccc(C(=C/C=C/C(=O)NCCCCc2cccnc2)c2cccc(OC)c2)c1
5,89.7 to 91.2,CN1CCC2(CC=C(c3cc4ccccc4s3)CC2)CC1
6,154 to 156,O=C(N[C@@H](CO)c1ccccc1)c1cccc(I)c1
7,109 to 112,CCCc1c(OCCCCCCc2cc(C)c(OC)c(OC)c2C)ccc(C(=O)O)c1O
8,159 to 161,CCCCS(=O)(=O)NC1Cc2ccc(C3=NNC(=O)CC3(C)C)cc2C1 (stereo not given)
9,145 to 147,CNC(=O)n1cc(C(N)=O)nc1C(C)(C)C
10,138 to 140,CC1(C)CCCC1CNC(=O)C=Cc1ccc(C(=O)O)cc1 (stereo not given)
11,164 to 165,CC(C)n1c(=O)n(C)c(=O)c2c(S(=O)CCCO)n(C3Cc4ccccc4C3)cc21 (stereo not given)
12,98 to 102,COC(=O)CC(=O)NC(N)Cc1ccccc1 (stereo not given)
13,103 to 104,CCOc1cc(CO)cc(OCc2nc(-c3ccccc3)oc2C)c1
14,102 to 107,COc1ccc(CNc2cc(N3CCCC3CO)ccc2C(=O)NCc2ncccn2)cc1Cl (stereo not given)
15,88 to 90,CN(CCOc1ccc(CC2SC(=O)NC2=O)cc1)C(=O)Nc1ccccc1 (stereo not given)
16,33 to 35,CC(C)C(=O)c1cccc([N+](=O)[O-])c1
17,> 250,CC1CC2=C(OC(NC=N)C2)c2ccc(=O)[nH]c21 (stereo not given)
18,83 to 85,COCCOc1c(S(C)(=O)=O)ccc(Cl)c1C
19,181 to 191,N=C(N)N(CCCCCCCCCCC(=O)O)C(=O)c1nc(Cl)c(N)nc1N
20,198 to 200,OC(c1ccc(F)cc1)(c1ccc(F)cc1)c1ncc[nH]1
21,310 to 317,O=C1N=C(N2CCOCC2)SC1c1cncc(-c2cc(F)c(O)c(C34CC5CC(CC(C5)C3)C4)c2)c1 (stereo not given)
22,98 to 100,CCN(CC)CCOc1ccc(NC(=O)C#Cc2ccc(Cl)cc2Cl)cc1Cl
23,181 to 183,O=C(O)Cc1c(C(=O)c2ccc(F)cc2)[nH]c2cc(Cl)ccc12
24,160 to 166,CC(C)c1nc(CO)n(Cc2ccccc2[N+](=O)[O-])c1Sc1cc(Cl)cc(Cl)c1

row,melting point [°C],Compound
1,136 to 137,CC(C)CC1(CC(=O)NO)CC(=O)N(CCc2ccccc2)C1=O (stereo not given)
2,243 to 245,Brc1cc(-c2c3ccccc3c(Br)c3sc4ccccc4c23)cc(Br)c1OCc1nnn[nH]1
3,118 to 122,COc1ccc(-c2cc(-c3ccccc3)c(-c3ccccc3)s2)cc1F
4,179 to 180,CS(=O)(=O)c1ccc(-n2cc(C(F)F)nc2-c2ccc(Cl)cc2)cc1
5,75,O=C(CCCCOCc1ccccc1)c1ccc([N+](=O)[O-])cc1
6,91 to 93,Nc1nc2ccccc2c2c1ncn2CCCCNC(=O)c1cccc2cccnc12
7,106 to 108,CN(C)C1CCc2c(c3ccccc3n2CCC(=O)O)C1 (stereo not given)
8,164 to 169,Cc1cc(F)ccc1-c1cc(N2CCSCC2)ncc1C(=O)NC(C)(C)C
9,118 to 123,CCN(CC)CCOc1ccc(Nc2nc(N)c(C(=O)c3cccc(OC)c3)s2)cc1
10,158 to 160,CCNC(=O)c1cnn(-c2ccccc2)c1Br
11,85.7 to 86.3,CC(C)c1cc(-c2ccc(F)c3ccccc23)nc(Nc2ccccc2)n1
12,217 to 219,O=C1Nc2ccc(F)c(Cl)c2C(=O)N2CCC[C@@H]12
13,119 to 120,COC(=O)Cc1ccccc1OCc1ccc(OCc2nc(-c3ccccc3)sc2C)nc1
14,195 to 200,O=C1c2ccccc2C(=O)N1OCc1cn(C(c2ccccc2)(c2ccccc2)c2ccccc2)nn1
15,154,N#Cc1cc([N+](=O)[O-])ccc1Oc1ccc(Cl)cc1Cl
16,173,Cn1ccnc1COc1nn2c(-c3ccccc3F)nnc2cc1C1CCC1
17,250 to 253,O=C(O)C=C1SC(=Nc2cccc3ccccc23)N(c2cccc3ccccc23)C1=O
18,195 to 196,CCc1[nH]n(C2CCCC2)c2nc(-c3cccc(OC4CCCCN(C)C4)c3)nc(=O)c1-2 (stereo not given)
19,214 to 215,CCc1noc(-c2cn(-c3cccc(O)c3)cn2)n1
20,143 to 144,CN(C)S(=O)(=O)n1cc(S(=O)(=O)N2CCc3ccccc3C2)nc1C#N
21,226 to 228,CCOC(=O)c1cnc2c([N+](=O)[O-])c(Cl)c(F)cc2c1O
22,100 to 101,COC(=O)c1ccccc1-c1nc(COc2ccc(CO)cc2OC)c(C)o1
23,300,Nc1ncc(-c2ccc(=O)[nH]n2)c(-c2ccc(Cl)c(Cl)c2)n1
24,102 to 104,Cc1ccc(C(=O)Nc2cccc(C(F)(F)F)c2)cc1-c1ccc2ncsc2c1

row,Compound,melting point [°C]
1,CC12CCC(=O)C=C1CCC1C2=CCC2(C)C(=O)CCC12 (stereo not given),196 to 202
2,NCCc1c[nH]c2ccc(-c3ccc(F)cc3)cc12,> 250
3,CCNC(=O)C[C@@H]1N=C(c2ccc(Cl)cc2)c2cc(OC)ccc2-n2c(C)nnc21,> 140
4,COC(=N)N1CCC(c2n[nH]c3cc(Cl)ccc23)CC1,173 to 175
